Data from patent publication US10076576B2, “Minimally toxic prodrugs” (priority 2012, dated 2018).
“And” between values parts separate entries of the source, which are not always exact repeats. Equal values may be shown once.

Key:
[1] = target: T1, CD10 (recombinant human neprilysin) (Homo sapiens, UniProt P08473); experiment: Reactivation assay with purified CD10; assay type: biochemical; details: 3 h at 37° C.; for % Metabolites released after 3 h (CD10 10 nM) / CD10 10 nM (cleavage +/−): 50 μM compound
T1 construct: purchased R&D systems 1182-ZN

[2] = test system: LS-174T tumor cell secreted peptidases; experiment: Reactivation assay in LS174T tumor cell conditioned medium; assay type: biochemical, human; details: for activation by tumor cell secreted enzymes (in words): LS174T tumor cell conditioned medium
Experimental: Sub-confluent cultures of LS-174T tumor cells were washed twice with a saline phosphate buffer solution, and fresh culture medium (DMEM-F12 without phenol red) containing 0.02% bovine serum albumin is added (100 μl/cm^2). After 24 hours incubation, the conditioned medium is collected, centrifuged for 10 minutes at 300 g, buffered with 1 M Tris-HCl, pH 7.4 (1 volume of buffer+19 volumes of medium) and concentrated 20 times by […] (cutoff threshold of 10 kDa).
Drug compounds (50 μM) were incubated for 0, 1, 3 or 5 hours at 37° C. in the presence of freshly prepared LS174T tumor cell conditioned medium. Fifty μL of sample were collected at each time point and processed as described above for human plasma.

[3] = target: T2, TOP (recombinant human thimet oligopeptidase) (Homo sapiens, UniProt P52888); experiment: Reactivation assay with purified TOP; assay type: biochemical; details: 3 h at 37° C.; for % Metabolites released after 3 h (TOP 5 nM) / TOP 5 nM (cleavage +/−): 50 μM compound
T2 construct: purchased R&D systems 3439-ZN
Experimental: (§1) TOP (recombinant human thimet oligopeptidase, R&D systems, Ref 3439-ZN) was diluted at 10 nM in a solution of 50 mM Tris-HCl pH 7.4/0.5M NaCl/0.1M DTT. CD26 and FAP were diluted at 1 μg/mL in a Tris-HCl pH 7.5 buffer. Reactions were initiated by addition of 50 μM of each compound to enzymes solutions (1 V enzyme solution+1 V 100 μM drug solution). Samples were incubated for 0, 1, or 3 hours at 37° C. in a water bath in the presence of purified enzymes. Fifty μL of sample were collected at each time point and processed as described above for human plasma. Activation of Suc-βALAL-dox was tested in parallel as a reference.

[4] = Stability in citrated human blood; details: 5 hours incubation at 37° C. in citrated human blood, 50 μM
[5] = Stability in citrated human plasma; details: 5 hours incubation at 37° C. in citrated human plasma (pH7), 50 μM
Experimental: The drug conjugates (50 μM) were mixed with human plasma and incubated for 5 hours at 37° C. in a water bath. […] Supernatant was collected.

tumor cell lines = details: cited from earlier work
CD26 = CD26 (Homo sapiens, UniProt P27487); experiment: Reactivation assay with purified CD26; assay type: biochemical; details: 3 h incubation at 37° C.
Experimental: as §1

FAP = target: T3, FAP (Homo sapiens, UniProt Q12884); experiment: Reactivation assay with purified FAP; assay type: biochemical; details: 3 h incubation at 37° C.
T3 sequence (Q12884 1-760): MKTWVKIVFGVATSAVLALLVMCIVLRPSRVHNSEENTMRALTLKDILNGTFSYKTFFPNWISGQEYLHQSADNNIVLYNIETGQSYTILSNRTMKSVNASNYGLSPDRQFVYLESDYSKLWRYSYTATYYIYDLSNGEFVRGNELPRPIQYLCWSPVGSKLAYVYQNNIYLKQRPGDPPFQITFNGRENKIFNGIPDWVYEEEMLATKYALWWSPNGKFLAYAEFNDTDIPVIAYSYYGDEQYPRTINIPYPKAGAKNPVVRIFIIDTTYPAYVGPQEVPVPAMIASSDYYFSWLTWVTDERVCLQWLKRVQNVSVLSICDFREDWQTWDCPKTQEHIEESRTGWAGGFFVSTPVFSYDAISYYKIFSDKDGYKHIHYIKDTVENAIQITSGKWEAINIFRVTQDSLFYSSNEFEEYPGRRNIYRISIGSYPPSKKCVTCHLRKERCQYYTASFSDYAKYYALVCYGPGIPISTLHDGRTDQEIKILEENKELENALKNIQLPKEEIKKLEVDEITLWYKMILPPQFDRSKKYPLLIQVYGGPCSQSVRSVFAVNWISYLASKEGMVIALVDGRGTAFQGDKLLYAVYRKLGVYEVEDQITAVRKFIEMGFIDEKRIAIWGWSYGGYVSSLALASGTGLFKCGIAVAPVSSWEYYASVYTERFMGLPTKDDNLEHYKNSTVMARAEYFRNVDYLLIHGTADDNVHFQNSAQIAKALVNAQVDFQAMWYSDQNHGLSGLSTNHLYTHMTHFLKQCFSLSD
Experimental: as §1

[6] = target: dihydrofolate reductase (DHFR) (Homo sapiens, UniProt P00374); details: cited from earlier work
[7] = In vivo toxicity after single iv bolus injection (body weight); parameters: species or system OF-1 mice
Experimental: FIG. 1. Effect of PhAc-peptide-Dox conjugates on the body weight of OF-1 normal mice (n=4). […] Results represent the mean body weight evolution.
The in vivo toxicity was evaluated by monitoring body weight.

T2 sequence (P52888 whole entry): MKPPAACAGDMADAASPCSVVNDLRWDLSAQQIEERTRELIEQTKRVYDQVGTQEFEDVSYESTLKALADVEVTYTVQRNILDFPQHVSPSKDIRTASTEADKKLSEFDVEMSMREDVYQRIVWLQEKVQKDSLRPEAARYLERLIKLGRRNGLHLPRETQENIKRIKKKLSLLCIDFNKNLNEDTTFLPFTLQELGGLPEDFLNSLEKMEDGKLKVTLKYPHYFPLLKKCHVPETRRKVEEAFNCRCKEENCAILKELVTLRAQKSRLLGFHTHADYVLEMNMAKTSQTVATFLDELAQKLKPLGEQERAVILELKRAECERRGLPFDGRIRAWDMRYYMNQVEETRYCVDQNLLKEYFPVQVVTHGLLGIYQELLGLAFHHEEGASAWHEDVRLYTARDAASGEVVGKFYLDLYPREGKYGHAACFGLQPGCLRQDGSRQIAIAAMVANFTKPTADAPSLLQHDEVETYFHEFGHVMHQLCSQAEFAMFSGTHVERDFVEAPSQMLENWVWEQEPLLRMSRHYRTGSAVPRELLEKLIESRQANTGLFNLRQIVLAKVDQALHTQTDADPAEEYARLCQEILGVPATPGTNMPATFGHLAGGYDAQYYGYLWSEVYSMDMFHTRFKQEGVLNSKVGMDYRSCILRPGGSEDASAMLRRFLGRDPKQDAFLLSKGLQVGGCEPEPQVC
T1 sequence (P08473 52-750 limits assumed): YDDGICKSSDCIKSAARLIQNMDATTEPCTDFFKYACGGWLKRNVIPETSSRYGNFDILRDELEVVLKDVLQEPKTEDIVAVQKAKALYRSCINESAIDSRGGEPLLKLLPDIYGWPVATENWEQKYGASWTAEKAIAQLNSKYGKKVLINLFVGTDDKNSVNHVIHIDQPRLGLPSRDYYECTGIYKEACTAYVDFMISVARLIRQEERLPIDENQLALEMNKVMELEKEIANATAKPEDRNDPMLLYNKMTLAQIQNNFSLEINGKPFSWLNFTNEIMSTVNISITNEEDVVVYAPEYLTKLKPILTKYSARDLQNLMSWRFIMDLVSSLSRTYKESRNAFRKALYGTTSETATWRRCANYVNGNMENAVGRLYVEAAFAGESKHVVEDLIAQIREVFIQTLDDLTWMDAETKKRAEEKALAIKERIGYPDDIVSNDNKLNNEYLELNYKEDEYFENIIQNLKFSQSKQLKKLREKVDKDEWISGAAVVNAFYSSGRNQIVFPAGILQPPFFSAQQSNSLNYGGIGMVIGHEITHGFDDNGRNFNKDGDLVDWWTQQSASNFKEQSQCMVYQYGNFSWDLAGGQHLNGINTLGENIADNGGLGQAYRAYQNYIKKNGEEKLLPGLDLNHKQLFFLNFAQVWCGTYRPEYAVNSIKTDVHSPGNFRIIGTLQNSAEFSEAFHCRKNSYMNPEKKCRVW
CD26, sequence (P27487 whole entry): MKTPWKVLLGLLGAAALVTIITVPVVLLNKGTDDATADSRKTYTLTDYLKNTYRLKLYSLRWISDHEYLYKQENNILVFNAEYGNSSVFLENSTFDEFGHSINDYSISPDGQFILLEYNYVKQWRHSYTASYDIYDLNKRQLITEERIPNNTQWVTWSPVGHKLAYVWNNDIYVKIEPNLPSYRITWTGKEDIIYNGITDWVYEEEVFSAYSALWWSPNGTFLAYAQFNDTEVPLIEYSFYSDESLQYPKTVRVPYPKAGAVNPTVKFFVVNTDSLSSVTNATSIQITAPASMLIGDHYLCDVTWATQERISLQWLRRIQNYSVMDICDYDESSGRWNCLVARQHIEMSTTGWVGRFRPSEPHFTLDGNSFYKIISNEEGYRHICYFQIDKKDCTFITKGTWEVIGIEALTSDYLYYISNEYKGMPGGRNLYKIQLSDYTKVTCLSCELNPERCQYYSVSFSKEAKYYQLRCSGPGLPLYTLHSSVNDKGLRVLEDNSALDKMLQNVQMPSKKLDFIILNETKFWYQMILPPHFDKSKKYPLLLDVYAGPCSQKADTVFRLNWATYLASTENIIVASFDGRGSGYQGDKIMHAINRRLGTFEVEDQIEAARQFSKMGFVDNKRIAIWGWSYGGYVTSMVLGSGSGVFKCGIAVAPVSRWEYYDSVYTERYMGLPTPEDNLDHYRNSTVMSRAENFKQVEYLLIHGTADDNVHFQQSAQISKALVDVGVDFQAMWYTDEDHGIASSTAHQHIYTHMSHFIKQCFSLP
dihydrofolate reductase (DHFR), sequence (P00374 whole entry, species assumed): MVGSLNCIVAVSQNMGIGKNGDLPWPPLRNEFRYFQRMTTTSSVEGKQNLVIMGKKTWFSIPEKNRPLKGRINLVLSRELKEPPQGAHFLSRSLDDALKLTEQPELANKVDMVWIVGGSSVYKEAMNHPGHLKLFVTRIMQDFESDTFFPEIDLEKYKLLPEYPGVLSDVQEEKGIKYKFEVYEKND

| Compound | cleavage by CD10 (in words) [1] | % Metabolites released after 3 h (CD10 10 nM) [1] | % Metabolites released after 5 h (LS174T CM20xcc) ([2]; 5 h at 37° C., 50 μM compound) [%] | activation by tumor cell secreted enzymes (in words) [2] | % Metabolites released after 3 h (TOP 5 nM) [3] | also measured |
| --- | --- | --- | --- | --- | --- | --- |
| PhAc-DLGP-doxorubicin | not or very slightly activated | 0% | 0 | not activated | 0% | cleavage by TOP (in words) [3]: not cleaved |
| COc1cccc2c1C(=O)c1c(O)c3c(c(O)c1C2=O)CC(O)(C(=O)CO)CC3OC1CC(NC(=O)C(Cc2ccccc2)NC(=O)C2CCCN2C(=O)C(CC(C)C)NC(=O)C(C)NC(=O)CP(=O)(O)O)C(O)C(C)O1 (stereo not shown) [PhAc-ALPF-Dox, PhAc-ALPF-doxorubicin] |  | 0% | 11 ± 6 | activated into F-Dox | <5% | % metabolites released: Dox [4]: 4%; % metabolites released: F-Dox [4]: 1%; total % metabolites [4]: 5%; % metabolites released: Dox [5]: 0%; % metabolites released: F-Dox [5]: 0%; total % metabolites [5]: 0%; TOP 5 nM (cleavage +/−) [3]: −* (*less than 5% of metabolites detected) |
| PhAc-KLGP-doxorubicin | not or very slightly activated | <5% | 39 ± 13 | mainly GP-Dox is detected | 31% and 31 ± 5% | CD10 10 nM (cleavage +/−) [1]: −* (*less than 5% of metabolites detected) |
| PhAc-AIGP-doxorubicin |  | 18% and 18 ± 3% | 3 ± 3 | not activated | <5% | LS174T CM20xcc (activation +/−) ([2]; 5 h at 37° C., conditioned medium concentrated 20 times, 50 μM compound): −* (*less than 5% of metabolites detected); cleavage by TOP (in words) [3]: not cleaved; TOP 5 nM (cleavage +/−) [3]: −* (*less than 5% of metabolites detected) |
| COc1cc2cc(c1Cl)N(C)C(=O)C[C@H](OC(=O)[C@H](C)N(C)C(C)=O)[C@]1(C)O[C@H]1[C@H](C)[C@@H]1C[C@@](O)(NC(=O)O1)[C@H](OC)/C=C/C=C(\C)C2 [Maytansine] |  |  |  |  |  | fold higher cytotoxicity than the Vinca alkaloids (tumor cell lines): about 100 fold; fold higher toxicity than doxorubicin (tumor cell lines): about 1000 fold |
| COc1cccc2c1C(=O)c1c(O)c3c(c(O)c1C2=O)C[C@@](O)(C(=O)CO)C[C@@H]3O[C@H]1C[C@H](NC(=O)[C@@H]2CCCN2C(=O)CN)[C@H](O)[C@H](C)O1 [GP-Dox, NH2-Gly-Pro-Doxorubicin] |  |  |  |  |  | conversion to Dox by CD26 (CD26): 97%; conversion to Dox by FAP (FAP): 62% |
| Methotrexate |  |  |  |  |  | affinity for DHFR relative to folate [6]: ~1000 fold |
| COc1cccc2c1C(=O)c1c(O)c3c(c(O)c1C2=O)CC(O)(C(=O)CO)CC3OC1CC(NC(=O)C(Cc2ccccc2)NC(=O)C(C)NC(=O)C(CC(C)C)NC(=O)C(C)NC(=O)CP(=O)(O)O)C(O)C(C)O1 (stereo not shown) [PhAc-ALAF-Dox, PhAc-ALAF-doxorubicin] | moderately cleaved | 24 ± 5% | 32 ± 15 | activated into F-Dox | <5% | % metabolites released: Dox [4]: 5%; % metabolites released: F-Dox [4]: 5%; total % metabolites [4]: 10%; % metabolites released: Dox [5]: 0%; % metabolites released: F-Dox [5]: 2%; total % metabolites [5]: 2%; TOP 5 nM (cleavage +/−) [3]: −* (*less than 5% of metabolites detected) |
| PhAc-TSGP-doxorubicin | not or very slightly activated | 0% | 35 ± 18 | mainly GP-Dox is detected | 38% and 38 ± 2% |  |
| COc1cccc2c1C(=O)c1c(O)c3c(c(O)c1C2=O)CC(O)(C(=O)CO)CC3OC1CC(NC(=O)C(CC(C)C)NC(=O)C(C)NC(=O)C(CC(C)C)NC(=O)C(C)NC(=O)CP(=O)(O)O)C(O)C(C)O1 (stereo not shown) [PhAc-ALAL-Dox, PhAc-ALAL-doxorubicin] | not efficiently cleaved |  | 65 ± 19 | activated | 44% and 44 ± 6% | % metabolites released: AL-Dox [4]: 0%; % metabolites released: Dox [4]: 9%; % metabolites released: L-dox [4]: 6%; total % metabolites [4]: 15%; body weight loss (in words) ([7]; 80 μmol/kg single iv): No significant body weight loss; toxicity (in words) ([7]; 160 μmol/kg single iv): high toxicity; CD10 10 nM (cleavage +/−) [1]: −* (*less than 5% of metabolites detected); % metabolites released: AL-Dox [5]: 0%; % metabolites released: Dox [5]: <1%; % metabolites released: L-dox [5]: 2%; total % metabolites [5]: 2% |
| PhAc-GPGP-doxorubicin | not or very slightly activated | 0% | 0 | not activated | 0% | cleavage by TOP (in words) [3]: not cleaved |
